Results published in patent US5268003A (priority 1992, dated 1993).

What was measured:
[1] = Bleaching of tea (BC-1) stained cotton in Terg-o-tometer, reflectance change; conditions: 10 ppm A.O.; for BC-1 ΔΔR pH 8: pH 8, 40° C.; for BC-1 ΔΔR pH 8 / BC-1 ΔΔR pH 9 / BC-1 ΔΔR pH 10: P-Surf base (1.5 g/l), 15 minutes, average of duplicates; for BC-1 ΔΔR pH 9: pH 9, 40° C.; for BC-1 ΔΔR pH 10: pH 10, 40° C.
Experimental: (§1) The bleaching performance of the peracids was evaluated against common stains such as tea (BC-1) and ink. Typically the cotton test pieces (3"×4") were stained with the appropriate stain and washed in a Terg-o-tometer for 15 minutes at 40° C. in a 500 mL aqueous wash solution. Dosage of the peracid was 10 ppm active oxygen.
Stain bleaching was measured reflectometrically using a Colorgard System/05 Reflectometer. Bleaching was indicated by an increase in reflectance, reported as ΔΔR. In general a ΔΔR of one unit is perceivable in a paired comparison while ΔΔR of two units is perceivable monadically. In reporting the reflectance change, the change in reflectance caused by general detergency has been accounted for. Thus ΔΔR can actually be expressed as:
ΔΔR=ΔR peracid+detergent-ΔR detergent
where ΔR is the reflectance difference of the stained fabric after and before washing.
BC-1 experiments were run in duplicate and the value shown is an average. In order to ensure that the solids were as finely dispersed as possible, one of the BC-1 experiments of each pair was usually conducted by predissolving the peracid in 1 ml of DMF; if this value was within 1 unit of the experiment using finely ground peracid, the values were averaged.
(§2) Bleaching Results at 40° C., 10 ppm A.O., P-Surf base (1.5 g

[2] = Bleaching of ink stained cotton in Terg-o-tometer, change in B-axis of Hunter color scale; conditions: pH 9, 40° C., 10 ppm A.O., P-Surf base (1.5 g/l), 15 minutes; corrected for detergent control
Experimental: as §1
Ink stain bleaching was measured as ΔB where the quantity ΔB is the change in the B-axis of the Hunter color scale. The ink stain is initially blue and loses color with bleaching thereby increasing the value of ΔB. Recorded ΔΔB values are ΔB values corrected for the cleaning accomplished by the detergent control.
as §2

[3] = heavy-duty liquid detergent, pH 4.5

Structure (SMILES) | BC-1 ΔΔR pH 8 [1] | BC-1 ΔΔR pH 9 [1] | BC-1 ΔΔR pH 10 [1] | INK ΔΔB pH 9 [2] | t1/2 at 40° C. [3] | BC-1 ΔΔR pH 8 (DMF value in parenthesis) ([1]; pH 8, peracid predissolved in 1 ml of DMF, 40° C., P-Surf base) | BC-1 ΔΔR pH 9 (DMF value in parenthesis) ([1]; pH 9, peracid predissolved in 1 ml of DMF, 40° C., P-Surf base)
O=C(Nc1ccc(C(=O)OO)cc1)c1ccc(C(=O)Nc2ccc(C(=O)OO)cc2)cc1 [DPCAT, N,N'-Di(4-Percarboxyaniline)terephthalate] | 1.6 | 1.5 | 2.3 | 3.1 | 65 days | – | –
O=C(CCCCC(=O)OO)Nc1ccc(NC(=O)CCCCC(=O)OO)cc1 [DPAPD, N,N'-Di(percarboxyadipoyl)phenylenediamine] | 7.1 | 6.7 | 4.0 | 8.0 | 32 days | – | –
O=C(OO)c1ccc(C(=O)N2CCN(C(=O)c3ccc(C(=O)OO)cc3)CC2)cc1 [PCBPIP, N,N'-Di(4-percarboxybenzoyl)piperazine] | 3.0 | 2.9 | 3.1 | 9.7 | 79 days | – | –
O=C(Nc1ccccc1NC(=O)c1ccc(C(=O)OO)cc1)c1ccc(C(=O)OO)cc1 [1,2-PCBPD, N,N'-Di(4-percarboxybenzoyl)-1,2-phenylenediamine] | 4.4 | 4.1 | 3.9 | 24.9 | 33 days | 8.1 | 6.5
O=C(CCC(=O)Nc1ccc(C(=O)OO)cc1)Nc1ccc(C(=O)OO)cc1 [SDPCA, N,N'-Succinoyl-di(4-percarboxy)aniline] | 2.7 | 3.3 | 5.0 | 16.8 | 43 days | – | –
O=C(NCCCCNC(=O)c1ccc(C(=O)OO)cc1)c1ccc(C(=O)OO)cc1 [PCBBD, N,N'-Di(4-percarboxybenzoyl)-1,4-butanediamine] | 9.5 | 9.4 | 6.0 | 28.9 | 15 days | – | –
O=C(CCCCCN1C(=O)c2ccccc2C1=O)OO [PAP, N-phthaloylamino peroxycaproic acid, reference compound] | – | – | – | – | 3 days | – | –
O=C(N[C@H]1CC[C@H](NC(=O)c2ccc(C(=O)OO)cc2)CC1)c1ccc(C(=O)OO)cc1 [PCBHEX, N,N'-Di(4-percarboxybenzoyl)-1,4-diaminocyclohexane] | 0.9 | 2.1 | 3.1 | 4.2 | – | – | –
O=C(NCCNC(=O)c1ccc(C(=O)OO)cc1)c1ccc(C(=O)OO)cc1 [PCBED, N,N'-Di(4-Percarboxybenzoyl)ethylenediamine] | 10.6 | 9.0 | 5.9 | 19.1 | – | – | –
